Source: patent US8957093B2, “N-biphenylmethylindole modulators of PPARG” (The Scripps Research Institute, priority 2011, dated 2015)

Each compound was assayed against GST-PPARG-LBD (Homo sapiens (Human), UniProt P37231) (assay: Lanthascreen PPARG competitive binding assay (Invitrogen, TR-FRET)). Settings: Lanthascreen PPARG competitive binding; inc = incomplete curve; NA = not active.
Procedure: Lanthascreen PPARG Competitive Binding Assay (Invitrogen)
The assay was performed according to manufacturer protocol. A mixture of […], 5 nM Tb-GST-antibody, 5 nM Fluormone Pan-PPAR Green, and serial dilutions of the experimental compound, beginning at 10 μM downwards, was added to wells of black 384-well low-volume plates (Greiner) to a total volume of 18 μL. All dilutions were made in TR-FRET assay buffer C. DMSO at 2% final concentration was used as a no-ligand control. Experiment was performed in triplicate, and incubated for 2 hours in the dark prior to assay read in Perkin Elmer ViewLux ultra HTS microplate reader. FRET signal was measured by excitation at 340 nm and emission at 520 nm for fluorescein and 490 nm for terbium. Fold change over DMSO was calculated using GraphPad Prism Software (La Jolla, Calif.) by calculating 520 nm/490 nm ratio. Graphs were plotted as fold change of FRET signal for compound treatment over DMSO-only control.

Chain of GST-PPARG-LBD (P37231 238-503): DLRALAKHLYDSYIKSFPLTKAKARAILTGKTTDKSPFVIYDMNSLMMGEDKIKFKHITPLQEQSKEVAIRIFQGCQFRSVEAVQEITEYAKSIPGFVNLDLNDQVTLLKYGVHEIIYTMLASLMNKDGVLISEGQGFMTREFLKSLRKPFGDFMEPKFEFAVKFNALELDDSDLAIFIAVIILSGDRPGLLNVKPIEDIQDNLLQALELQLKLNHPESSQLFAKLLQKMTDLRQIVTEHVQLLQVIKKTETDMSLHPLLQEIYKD

| IC50 (nM) Lantha | Compound |
| --- | --- |
| inc | Cc1ccc([C@H](C)NC(=O)c2ccc3c(c2)c(C)c(C)n3Cc2ccc(-c3ccccc3C#N)cc2)cc1 [Example 288, (S)-1-((2′-cyano-[1,1′-biphenyl]-4-yl)methyl)-2,3-dimethyl-N-(1-(p-tolyl)ethyl)-1H-indole-5-carboxamide] |
| inc | CCOc1cccc([C@H](C)NC(=O)c2ccc3c(c2)c(C)c(C)n3Cc2ccc(-c3ccccc3C#N)cc2)c1 [Example 280, (S)-1-((2′-cyano-[1,1′-biphenyl]-4-yl)methyl)-N-(1-(3-ethoxyphenyl)ethyl)-2,3-dimethyl-1H-indole-5-carboxamide] |
| inc | Cc1c(C)n(Cc2ccc(-c3ccccc3C#N)cc2)c2ccc(C(=O)N[C@@H](C)c3cccc(Br)c3)cc12 [Example 284, (S)—N-(1-(3-bromophenyl)ethyl)-1-((2′-cyano-[1,1′-biphenyl]-4-yl)methyl)-2,3-dimethyl-1H-indole-5-carboxamide] |
| inc | Cc1c(C)n(Cc2ccc(-c3ccccc3C#N)cc2)c2ccc(C(=O)N[C@@H](C)c3cccc(C(F)(F)F)c3)cc12 [Example 282, (S)-1-((2′-cyano-[1,1′-biphenyl]-4-yl)methyl)-2,3-dimethyl-N-(1-(3-(trifluoromethyl)phenyl)ethyl)-1H-indole-5-carboxamide] |
| inc | Cc1c(C)n(Cc2ccc(-c3ccccc3C#N)cc2)c2ccc(C(=O)N[C@@H](C)c3cccc(Cl)c3)cc12 [Example 281, (S)—N-(1-(3-chlorophenyl)ethyl)-1-((2′-cyano-[1,1′-biphenyl]-4-yl)methyl)-2,3-dimethyl-1H-indole-5-carboxamide] |
| inc | CCc1ccc([C@H](C)NC(=O)c2ccc3c(c2)c(C)c(C)n3Cc2ccc(-c3ccccc3C#N)cc2)cc1 [Example 289, (S)-1-((2′-cyano-[1,1′-biphenyl]-4-yl)methyl)-N-(1-(4-ethylphenyl)ethyl)-2,3-dimethyl-1H-indole-5-carboxamide] |
| inc | Cc1c(C)n(Cc2ccc(-c3ccccc3C#N)cc2)c2ccc(C(=O)N[C@@H](C)c3ccccc3Cl)cc12 [Example 287, (S)—N-(1-(2-chlorophenyl)ethyl)-1-((2′-cyano-[1,1′-biphenyl]-4-yl)methyl)-2,3-dimethyl-1H-indole-5-carboxamide] |
| inc | Cc1c(C)n(Cc2ccc(-c3ccccc3C#N)cc2)c2ccc(C(=O)N[C@@H](C)c3ccc(F)cc3F)cc12 [Example 286, (S)-1-((2′-cyano-[1,1′-biphenyl]-4-yl)methyl)-N-(1-(2,4-difluorophenyl)ethyl)-2,3-dimethyl-1H-indole-5-carboxamide] |

Same assay, conditions: Lanthascreen PPARG competitive binding; inc = incomplete curve; NA = not active; read-out: IC50 (nM) Lantha

| Compound | IC50 |
| --- | --- |
| Cc1c(C)n(Cc2ccc(-c3ccccc3C(=O)O)cc2)c2ccc(C(=O)N[C@H](C)c3ccc(S(C)(=O)=O)cc3)cc12 [Example 276, (R)-4′-((2,3-dimethyl-5-(1-(4-(methylsulfonyl)phenyl)ethylcarbamoyl)-1H-indol-1-yl)methyl)biphenyl-2-carboxylic acid] | 11 nM |
| Cc1c(C)n(Cc2ccc(-c3ccccc3C(=O)NCCO)cc2)c2ccc(C(=O)N[C@@H](C)c3cccc(C(C)C)c3)cc12 [Example 307, (S)-1-((2′-((2-Hydroxyethyl)carbamoyl)-[1,1′-biphenyl]-4-yl)methyl)-N-(1-(3-isopropylphenyl)ethyl)-2,3-dimethyl-1H-indole-5-carboxamide] | 600 nM |

Same assay, conditions: Lanthascreen competitive binding; NA = not active; inc = incomplete curve

| IC50 (nM) Lantha | Compound |
| --- | --- |
| inc | Cc1c(C)n(Cc2ccc(-c3ccccc3C#N)cc2)c2ccc(C(=O)N[C@@H](C)c3ccc(C(C)C)cc3)cc12 [Example 186, (S)-1-((2′-cyano-[1,1′-biphenyl]-4-yl)methyl)-N-(1-(4-isopropylphenyl)ethyl)-2,3-dimethyl-1H-indole-5-carboxamide] |
| inc | Cc1c(C)n(Cc2ccc(-c3ccccc3C#N)cc2)c2ccc(C(=O)N[C@@H](C)c3cccc(C(C)(C)C)c3)cc12 [Example 185, (S)—N-(1-(3-(tert-butyl)phenyl)ethyl)-1-((2′-cyano-[1,1′-biphenyl]-4-yl)methyl)-2,3-dimethyl-1H-indole-5-carboxamide] |

Same assay, conditions: Lanthascreen competitive binding; NA = not active; inc = incomplete curve; read-out: IC50 (nM) Lantha

| Compound | IC50 |
| --- | --- |
| Cc1c(C)n(Cc2ccc(-c3ccccc3C(=O)O)cc2)c2ccc(C(=O)N[C@H](C)c3c(F)cncc3F)cc12 [Example 215, (R)-4′-((5-((1-(3,5-difluoropyridin-4-yl)ethyl)carbamoyl)-2,3-dimethyl-1H-indol-1-yl)methyl)-[1,1′-biphenyl]-2-carboxylic acid] | 309 nM |
| C[C@H](NC(=O)c1ccc2c(ccn2Cc2ccc(-c3cccc(C(=O)O)c3)cc2)c1)c1ccc([N+](=O)[O-])cc1 [Example 60, (S)-4′-((5-((1-(4-Nitrophenyl)ethyl)carbamoyl)-1H-indol-1-yl)methyl)-[1,1′-biphenyl]-3-carboxylic acid] | > 1000 nM |
| C[C@H](NC(=O)c1ccc2c(ccn2Cc2ccc(-c3ccc(C(=O)O)cc3)cc2)c1)c1ccc([N+](=O)[O-])cc1 [Example 59, (S)-4′-((5-((1-(4-Nitrophenyl)ethyl)carbamoyl)-1H-indol-1-yl)methyl)-[1,1′-biphenyl]-4-carboxylic acid] | > 1000 nM |
| CSc1ccc(-c2ccc(Cn3ccc4cc(C(=O)N[C@@H](C)c5ccc([N+](=O)[O-])cc5)ccc43)cc2)cc1 [Example 51, (S)-1-((4′-(Methylthio)-[1,1′-biphenyl]-4-yl)methyl)-N-(1-(4-nitrophenyl)ethyl)-1H-indole-5-carboxamide] | > 1000 nM |
| C[C@H](NC(=O)c1ccc2c(ccn2Cc2ccc(-c3cccc(CN)c3)cc2)c1)c1ccc([N+](=O)[O-])cc1 [Example 53, (S)-1-((3′-(Aminomethyl)-[1,1′-biphenyl]-4-yl)methyl)-N-(1-(4-nitrophenyl)ethyl)-1H-indole-5-carboxamide] | > 1000 nM |
| Cc1c(C)n(Cc2ccc(-c3ccccc3C(=O)O)cc2)c2ccc(C(=O)NCc3cccc4ccccc34)cc12 [Example 115, 4′-((2,3-dimethyl-5-(naphthalen-1-ylmethylcarbamoyl)-1H-indol-1-yl)methyl)biphenyl-2-carboxylic acid] | 64 nM |
| CCC(NC(=O)c1ccc2c(c1)c(C)c(C)n2Cc1ccccc1-c1cccc(C(=O)O)c1)c1ccccc1 (centres unmarked) [Example 126, 2′-((2,3-Dimethyl-5-((1-phenylpropyl)carbamoyl)-1H-indol-1-yl)methyl)-[1,1′-biphenyl]-3-carboxylic acid] | 99 nM |
| COc1c(F)cccc1[C@H](C)NC(=O)c1ccc2c(c1)c(C)c(C)n2Cc1ccc(-c2ccccc2C(=O)O)cc1 [Example 177, (S)-4′-((5-((1-(3-fluoro-2-methoxyphenyl)ethyl)carbamoyl)-2,3-dimethyl-1H-indol-1-yl)methyl)-[1,1′-biphenyl]-2-carboxylic acid] | 21 nM |
| C[C@H](NC(=O)c1ccc2c(ccn2Cc2ccc(-c3ccccc3O)cc2)c1)c1ccc([N+](=O)[O-])cc1 [Example 40, (S)-1-((2′-Hydroxy-[1,1′-biphenyl]-4-yl)methyl)-N-(1-(4-nitrophenyl)ethyl)-1H-indole-5-carboxamide] | > 1000 nM |
| Cc1c(C)n(Cc2ccc(-c3ccccc3C(=O)O)cc2)c2ccc(C(=O)N[C@@H](C)c3ccc(N)cc3)cc12 [Example 99, (S)-4′-((5-(1-(4-aminophenyl)ethylcarbamoyl)-2,3-dimethyl-1H-indol-1-yl)methyl)biphenyl-2-carboxylic acid] | 240 nM |
| C[C@H](NC(=O)c1ccc2c(ccn2Cc2ccc(-c3ccccc3CO)cc2)c1)c1ccc([N+](=O)[O-])cc1 [Example 54, (S)-1-((2′-(Hydroxymethyl)-[1,1′-biphenyl]-4-yl)methyl)-N-(1-(4-nitrophenyl)ethyl)-1H-indole-5-carboxamide] | > 1000 nM |
| Cc1ccc(-c2ccc(Cn3ccc4cc(C(=O)N[C@@H](C)c5ccc([N+](=O)[O-])cc5)ccc43)cc2)cc1 [Example 57, (S)-1-((4′-Methyl-[1,1′-biphenyl]-4-yl)methyl)-N-(1-(4-nitrophenyl)ethyl)-1H-indole-5-carboxamide] | > 1000 nM |
| Cc1c(C)n(Cc2ccc(-c3ccccc3C(=O)O)cc2)c2ccc(C(=O)N[C@@H](C)c3ccccc3OC(F)(F)F)cc12 [Example 256, (S)-4′-((2,3-dimethyl-5-(1-(2-(trifluoromethoxy)phenyl)ethylcarbamoyl)-1H-indol-1-yl)methyl)biphenyl-2-carboxylic acid] | 38 nM |
| CCC(NC(=O)c1ccc2c(ccn2Cc2ccccc2-c2ccccc2C(=O)O)c1)c1ccccc1 (centres unmarked) [Example 68, 2′-((5-((1-phenylpropyl)carbamoyl)-1H-indol-1-yl)methyl)-[1,1′-biphenyl]-2-carboxylic acid] | > 1000 nM |
| C[C@H](NC(=O)c1ccc2c(ccn2Cc2ccc(-c3ccccc3C(=O)O)cc2)c1)c1ccc([N+](=O)[O-])cc1 [Example 61, (S)-4′-((5-((1-(4-Nitrophenyl)ethyl)carbamoyl)-1H-indol-1-yl)methyl)-[1,1′-biphenyl]-2-carboxylic acid] | 646 nM |
| Cc1c(C)n(Cc2ccc(-c3ccccc3C(=O)O)cc2)c2ccc(C(=O)NCC(=O)c3ccccc3)cc12 [compound 31, 4′-((2,3-Dimethyl-5-((2-oxo-2-phenylethyl)carbamoyl)-1H-indol-1-yl)methyl)-[1,1′-biphenyl]-2-carboxylic acid] | 244 nM |
| COc1cc(CNC(=O)c2ccc3c(c2)c(C)c(C)n3Cc2ccc(-c3ccccc3C(=O)O)cc2)cc(OC)c1 [compound 22, 4′-((5-(3,5-Dimethoxybenzylcarbamoyl)-2,3-dimethyl-1H-indol-1-yl)methyl)biphenyl-2-carboxylic acid] | 10 nM |
